Data as given in paper PMC5021948, “Amyloidogenic amyloid-β-peptide variants induce microbial agglutination and exert antimicrobial activity” (Scientific Reports, 2016).

Key:
[1] = test system: E. faecalis, E. coli, S. aureus, L. monocytogenes and C. albicans; assay: Flow cytometry of damaged microorganisms (increased autofluorescence / reduced forward scatter); format: cell-based; conditions: 25 or 50 μg/ml, 6 h bacteria, 20 h C. albicans
Procedure: Enterococcus faecalis (ATCC 29212), Listeria monocytogenes (VA 15110/93), Escherichia coli (DH5α) and Staphylococcus aureus (ATCC 25923) were grown aerobically on blood agar plates. Candida albicans (ATCC 10231) was plated on Sabouraud dextrose agar plates. E. coli, S. aureus and C. albicans were cultured at 37 °C; E. faecalis and L. monocytogenes were cultured at 37 °C with an additional 5% CO2. Before the experiments, the organisms were subcultured to generate mid-logarithmic growth cultures for use as inoculates. Colonies from the agar were transferred using a sterile loop to Mueller-Hinton broth (Roth, Karlsruhe, Germany) and incubated for 100 min at 39 °C to achieve a McFarland density of 0.5. The C. albicans and bacterial inocula were normalized in Mueller-Hinton broth to 5 × 10^5 cells/ml immediately before use. For the experiments, an inoculum of 5 × 10^5 cells/ml was dispensed into 96-well plates containing Mueller-Hinton broth growth medium with Aβ peptides, as indicated below. […]
After 6 h of incubation for bacteria and 20 h for C. albicans, 50 μl of the cell suspension was diluted in 1% paraformaldehyde (Sigma-Aldrich, Munich, Germany) and stained with DAPI (Sigma-Aldrich, Munich, Germany). Flow cytometry analysis was performed using a Gallios Cytometer (Beckman Coulter, Krefeld, Germany), and the results were evaluated using Kaluza® software (Beckman & Coulter, Krefeld, Germany). Experiments were repeated at least three times for each organism, and duplicates were included for each assay condition. Cultures treated with antibiotics, Mueller-Hinton broth without cells and untreated cells served as controls. Viability was assessed based on the increase in autofluorescence and reduction of forward scatter as signs of microbial damage.

[2] = test system: E. faecalis, E. coli, S. aureus, L. monocytogenes and C. albicans; assay: Gram staining, microbial agglutination; format: cell-based; conditions: 50 μg/ml, 6 h (20 h for C. albicans)
Procedure: (§1) Enterococcus faecalis (ATCC 29212), Listeria monocytogenes (VA 15110/93), Escherichia coli (DH5α) and Staphylococcus aureus (ATCC 25923) were grown aerobically on blood agar plates. Candida albicans (ATCC 10231) was plated on Sabouraud dextrose agar plates. E. coli, S. aureus and C. albicans were cultured at 37 °C; E. faecalis and L. monocytogenes were cultured at 37 °C with an additional 5% CO2. Before the experiments, the organisms were subcultured to generate mid-logarithmic growth cultures for use as inoculates. Colonies from the agar were transferred using a sterile loop to Mueller-Hinton broth (Roth, Karlsruhe, Germany) and incubated for 100 min at 39 °C to achieve a McFarland density of 0.5. The C. albicans and bacterial inocula were normalized in Mueller-Hinton broth to 5 × 10^5 cells/ml immediately before use. For the experiments, an inoculum of 5 × 10^5 cells/ml was dispensed into 96-well plates containing Mueller-Hinton broth growth medium with Aβ peptides, as indicated below.
The same cultures analysed by flow cytometry were used for the gram staining. After incubating the bacteria and C. albicans with the peptides, 10 μl of the cell suspensions were air-dried on microscope slides and flame-fixated. The smears were flooded with crystal violet solution for 2 min. The slides were rinsed and then incubated for 2 min with iodine solution. […]

E. faecalis [3] = assay: Scanning electron microscopy; format: cell-based, Enterococcus faecalis; conditions: 50 μg/ml, 6 h
Source text: The specimens were attached to aluminum holders and sputtered with platinum in 15-nm layers using a LEICA EM SCD-500 (Leica, Wetzlar, Germany). The surface morphology of the platinum sputter-coated samples was investigated using a JSM 6 610 scanning electron microscope (JEOL, Peabody, MA, USA) at a working distance of 10 mm and an acceleration voltage of 10 kV at room temperature.

C. albicans = assay: Proliferation by turbidimetry at 570 nm; format: cell-based, Candida albicans; conditions: 3.13 or 6.25 μg/ml, 20 h (Fig. 5 legend: 24 h), 37 °C
Procedure: as §1
An inoculum of 5 × 10^5 cells/ml was dispensed into 96-well plates containing Mueller-Hinton broth growth medium and 3.13 μg/ml or 6.25 μg/ml Aβ-peptides or LL-37 (Anaspec, Fremont, CA, USA). […] The resulting absorbance was measured with a SpectraMax 340 PC 384 microplate reader (Molecular Devices, Biberach, Germany). The proliferation of C. albicans was assessed by measuring turbidity at 570 nm.

[4] = test system: Candida albicans (ATCC 10231); assay: Colony forming units after plating Aβ-treated cultures; format: cell-based; conditions: 50 μg/ml peptide
Procedure: as §1
(§2) Immediately before the experiments, all peptides were diluted in Mueller-Hinton broth to reach a final concentration of 100 μg/ml.
(§3) The viability of E. faecalis, E. coli and C. albicans was further examined by plating Aβ-treated cultures on agar plates. Cultures of E. coli, E. faecalis and C. albicans were prepared as described above. After incubation with 50 μg/ml Aβ1-40, Aβ1-42 or Aβ3p-42 for 6 h for bacteria and 20 h for C. albicans, the cell suspensions were diluted in Mueller-Hinton broth, and the microbial load was determined using an Eddy Jet Spiral Plater (IUL Instruments, Germany) by depositing 50 μl of sample on a rotating agar plate. Bacteria were grown on Mueller-Hinton agar plates, and C. albicans was grown on Sabouraud dextrose agar plates. After 24 h of incubation, colonies were counted and translated to colony-forming units (CFU)/ml.

[5] = test system: Enterococcus faecalis (ATCC 29212); assay: as above; format: cell-based; conditions: 50 μg/ml peptide, 6 h, Mueller-Hinton broth, inoculum 5 × 10^5 cells/ml, spiral plated, colonies counted after 24 h
Procedure: as §1, §2, §3

Escherichia coli (DH5α) = assay: as above; format: cell-based; conditions: 50 μg/ml peptide, 6 h, Mueller-Hinton broth, inoculum 5 × 10^5 cells/ml, spiral plated, colonies counted after 24 h
Procedure: as §1, §2, §3

[6] = test system: surfaces of E. faecalis and S. aureus; assay: Immunocytochemistry (6E10), Aβ peptide bound to microbial surface; format: binding; conditions: 50 μg/ml, 6 h, 6E10 antibody, mean pixel intensity in donut-shaped masks
E. faecalis [7] = assay: Automated quantification of cell aggregation on immunocytochemistry slides; format: cell-based, Enterococcus faecalis; conditions: 50 μg/ml, 6 h
Procedure: (§4) The immunocytochemistry of E. faecalis and S. aureus was examined using the Gram preparations specified above. To achieve the robust adherence of pathogens on the glass slides during the staining procedure, cells were incubated with 2% paraformaldehyde (Sigma-Aldrich, Munich, Germany) on the slides and air dried for 60 min at room temperature, followed by washing with PBS (Biochrom, Berlin, Germany). […]
(§5) All images were visually quality controlled. […] An automated quantitative phenotypic image analysis was performed using a custom-adapted version of the image analysis software DetecTiff. Pericellular Aβ peptide levels were quantified from the AF488 channel within donut-shaped masks (see Fig. 1B), which were generated from the DAPI channel in a three-step procedure. […] The Aβ peptide level in an individual cell was calculated as the arithmetic mean of all pixel values within the area of a donut-shaped mask and reported as the mean pixel intensity. Cell aggregation was quantified in an automated manner from segmented images of DAPI-stained nuclei by counting the number of bacteria adjacent to a selected individual bacterium within a rectangular 50-pixel[2] region.

S. aureus = assay: as above; format: cell-based, Staphylococcus aureus; conditions: 50 μg/ml, 6 h
Procedure: as §4, §5

[8] = Thioflavin T assay of Aβ peptide aggregation; format: physicochemical; conditions: 160 μg/ml in PBS/0.4% NH4OH, 0.2 mM Thioflavin T, 37 °C, 6 h, Ex 450/Em 484 nm; with heat inactivated E. coli, S. aureus or C. albicans (McFarland 0.5) versus PBS alone or 0.5 μm carboxylated microbeads
Procedure: Thioflavin T was used to monitor the aggregation of Aβ1-42 in the presence of microorganisms. In a black 96-well plate, 160 μg/ml of Aβ1-42 in PBS/0.4% NH4OH were mixed with heat inactivated E. coli, S. aureus or C. albicans at a final density of McFarland 0.5. Leaving away the microorganisms or adding 10 μg/ml carboxylated microbeads (Micromod, Rostock, Germany) with a diameter of 0.5 μm served as control. After adding Thioflavin T (Sigma-Aldrich, Munich, Germany) in final concentration of 0.2 mM, kinetic measurement was performed at 37 °C with excitation at 450 nm and emission at 484 nm in a CLARIOstar® microplate reader (BMG labtech, Ortenberg, Germany). Measurements containing the respective microorganisms but no Aβ1-42 served as blank.

For “Aβ2-40: non-amyloidogenic, N-terminally truncated amyloid-β peptide variant ending at position 40 (Anaspec)”, the “antimicrobial / microbicidal activity by flow cytometry” value (“antimicrobial / microbicidal activity” for short) [1] was “No microbicidal activity was observed”, the “microbial agglutination in Gram stains” value [2] was “Neither Aβ1-40 nor Aβ2-40 induced microbial agglutination” and the “aggregates of bacteria in scanning electron microscopy” value (E. faecalis [3]) was “larger aggregates of bacteria that retained their vital morphology”. The “proliferation of C. albicans (turbidity)” value (C. albicans) was “miss the cytotoxic effect”.
For “Aβ1-42: amyloidogenic amyloid-β peptide variant ending at position 42 (Anaspec)”, the “reduction of the number of colony forming units” value ([4]; 20 h (Fig. 5 legend: 24 h), Sabouraud dextrose agar, colonies counted after 24 h) was 85%, the “reduction of the number of colony forming units compared to untreated cultures” value (from here on “reduction of the number … to untreated cultures”) [5] was 50% and the “reduction of the number … to untreated cultures” value (Escherichia coli (DH5α)) was 50%. For the same substance, the “antimicrobial / microbicidal activity” value [1] was “exerted antimicrobial activity”, the “damaged microorganisms (reduced forward scatter and increased autofluorescence, AF+/FSC−), share of cells” value ([1]; DAPI-positive events) was “up to 70%” and the “binding of Aβ peptide to microbial surfaces” value [6] was “bound to microbial surfaces”. For the same substance, the “agglutination of bacteria (number of cells around each bacterium)” value (from here on “agglutination of bacteria”) (E. faecalis [7]) was “led to agglutination”, the “agglutination of bacteria” value (S. aureus) was “led to agglutination” and the “agglutination (aggregation) of the peptide, Thioflavin fluorescence over time” value [8] was “more rapid increase in Thioflavin fluorescence”.
For “Aβ1-40: non-amyloidogenic amyloid-β peptide variant ending at position 40 (Anaspec)”, the “antimicrobial effect in culture (colony forming units)” value ([4]; 20 h) was “moderate antimicrobial effect”, the “reduction of the number … to untreated cultures” value [5] was “not reduced” and the “reduction of the number … to untreated cultures” value (Escherichia coli (DH5α)) was “not reduced”. For the same substance, the “antimicrobial / microbicidal activity” value [1] was “No microbicidal activity was observed”, the “agglutination of bacteria” value (E. faecalis [7]) was “almost no agglutination” and the “agglutination of bacteria” value (S. aureus) was “almost no agglutination”. For the same substance, the “microbial agglutination in Gram stains” value [2] was “Neither Aβ1-40 nor Aβ2-40 induced microbial agglutination”, the “aggregates of bacteria in scanning electron microscopy” value (E. faecalis [3]) was “Only minor aggregates” and the “proliferation of C. albicans (turbidity)” value (C. albicans) was “miss the cytotoxic effect”.
